Results published in PubChem BioAssay (NCI).
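These data come from cells grown in 96-well plates and exposed to compound for 48 hours at five concentrations. GI50 marks 50% less growth. At the TGI there is no net growth.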

Columns and labels:
Experiment in all cases: NCI anticancer screen, dose series, 48 h; in the data active = GI50 below about 0.43 µM; inactive = the rest
786-0 renal = test system: 786-0 renal
A549 NSCLC = test system: A549 NSCLC
ACHN renal = test system: ACHN renal
BT-549 breast = test system: BT-549 breast
CAKI-1 renal = test system: CAKI-1 renal
CCRF-CEM leukemia = test system: CCRF-CEM leukemia
COLO 205 colon = test system: COLO 205 colon
DU-145 prostate = test system: DU-145 prostate
EKVX NSCLC = test system: EKVX NSCLC
HCC-2998 colon = test system: HCC-2998 colon
HCT-116 colon = test system: HCT-116 colon
HCT-15 colon = test system: HCT-15 colon
HL-60(TB) leukemia = test system: HL-60(TB) leukemia
HOP-62 NSCLC = test system: HOP-62 NSCLC
HOP-92 NSCLC = test system: HOP-92 NSCLC
HS 578T breast = test system: HS 578T breast
HT29 colon = test system: HT29 colon
IGROV1 ovarian = test system: IGROV1 ovarian
KM12 colon = test system: KM12 colon
LOX IMVI melanoma = test system: LOX IMVI melanoma
M14 melanoma = test system: M14 melanoma
MCF7 breast = test system: MCF7 breast
MDA-MB-231 breast = test system: MDA-MB-231 breast
MDA-MB-435 = test system: MDA-MB-435
MDA-N = test system: MDA-N
MOLT-4 leukemia = test system: MOLT-4 leukemia
NCI-H226 lung = test system: NCI-H226 lung
NCI-H23 lung = test system: NCI-H23 lung
NCI-H460 lung = test system: NCI-H460 lung
NCI-H522 lung = test system: NCI-H522 lung
NCI/ADR-RES ovarian = test system: NCI/ADR-RES ovarian
OVCAR-3 ovarian = test system: OVCAR-3 ovarian
OVCAR-4 ovarian = test system: OVCAR-4 ovarian
OVCAR-5 ovarian = test system: OVCAR-5 ovarian
OVCAR-8 ovarian = test system: OVCAR-8 ovarian
PC-3 prostate = test system: PC-3 prostate
RXF 393 renal = test system: RXF 393 renal
SF-268 CNS = test system: SF-268 CNS
SF-295 CNS = test system: SF-295 CNS
SF-539 CNS = test system: SF-539 CNS
SK-MEL-2 melanoma = test system: SK-MEL-2 melanoma
SK-MEL-28 melanoma = test system: SK-MEL-28 melanoma
SK-MEL-5 melanoma = test system: SK-MEL-5 melanoma
SK-OV-3 ovarian = test system: SK-OV-3 ovarian
SN12C renal = test system: SN12C renal
SNB-19 CNS = test system: SNB-19 CNS
SNB-75 CNS = test system: SNB-75 CNS
SW-620 colon = test system: SW-620 colon
TK-10 renal = test system: TK-10 renal
U251 CNS = test system: U251 CNS
UACC-257 melanoma = test system: UACC-257 melanoma
UACC-62 melanoma = test system: UACC-62 melanoma
UO-31 renal = test system: UO-31 renal
A498 renal = test system: A498 renal
K-562 leukemia = test system: K-562 leukemia
MALME-3M melanoma = test system: MALME-3M melanoma
RPMI-8226 leukemia = test system: RPMI-8226 leukemia
SR leukemia = test system: SR leukemia
T-47D breast = test system: T-47D breast

Cc1nc(C(N)=S)sc1/C(CC(=O)C(=O)Nc1cccc2ccc(O)cc12)=N\NC(=O)c1ccncc1
> 100000 nM: TGI (786-0 renal) | TGI (A549 NSCLC) | TGI (ACHN renal) | TGI (BT-549 breast) | TGI (CAKI-1 renal) | TGI (CCRF-CEM leukemia) | TGI (COLO 205 colon) | TGI (DU-145 prostate) | TGI (EKVX NSCLC) | TGI (HCC-2998 colon) | TGI (HCT-116 colon) | TGI (HCT-15 colon) | TGI (HL-60(TB) leukemia) | TGI (HOP-62 NSCLC) | TGI (HOP-92 NSCLC) | TGI (HS 578T breast) | TGI (HT29 colon) | TGI (IGROV1 ovarian) | TGI (KM12 colon) | TGI (LOX IMVI melanoma) | TGI (M14 melanoma) | TGI (MCF7 breast) | TGI (MDA-MB-231 breast) | TGI (MDA-MB-435) | TGI (MDA-N) | TGI (NCI-H226 lung) | TGI (NCI-H23 lung) | TGI (NCI-H522 lung) | TGI (NCI/ADR-RES ovarian) | TGI (OVCAR-3 ovarian) | TGI (OVCAR-4 ovarian) | TGI (OVCAR-5 ovarian) | TGI (OVCAR-8 ovarian) | TGI (PC-3 prostate) | TGI (RXF 393 renal) | TGI (SF-268 CNS) | TGI (SF-295 CNS) | TGI (SF-539 CNS) | TGI (SK-MEL-2 melanoma) | TGI (SK-MEL-28 melanoma) | TGI (SK-MEL-5 melanoma) | TGI (SK-OV-3 ovarian) | TGI (SN12C renal) | TGI (SNB-19 CNS) | TGI (SNB-75 CNS) | TGI (SW-620 colon) | TGI (TK-10 renal) | TGI (U251 CNS) | TGI (UACC-257 melanoma) | TGI (UACC-62 melanoma) | TGI (UO-31 renal)
64600 nM: TGI (NCI-H460 lung)
74300 nM: TGI (MOLT-4 leukemia)

O=C(Cc1cccs1)N[C@@H]1C(=O)N2C(C(=O)OC(c3ccccc3)c3ccccc3)=C(CO)CS[C@H]12
> 100000 nM: TGI (786-0 renal) | TGI (A498 renal) | TGI (A549 NSCLC) | TGI (ACHN renal) | TGI (CAKI-1 renal) | TGI (CCRF-CEM leukemia) | TGI (COLO 205 colon) | TGI (DU-145 prostate) | TGI (EKVX NSCLC) | TGI (HCC-2998 colon) | TGI (HCT-116 colon) | TGI (HCT-15 colon) | TGI (HL-60(TB) leukemia) | TGI (HOP-92 NSCLC) | TGI (IGROV1 ovarian) | TGI (K-562 leukemia) | TGI (KM12 colon) | TGI (LOX IMVI melanoma) | TGI (M14 melanoma) | TGI (MALME-3M melanoma) | TGI (MCF7 breast) | TGI (MDA-MB-231 breast) | TGI (MDA-MB-435) | TGI (MDA-N) | TGI (MOLT-4 leukemia) | TGI (NCI-H23 lung) | TGI (NCI-H460 lung) | TGI (NCI-H522 lung) | TGI (NCI/ADR-RES ovarian) | TGI (OVCAR-3 ovarian) | TGI (OVCAR-4 ovarian) | TGI (OVCAR-5 ovarian) | TGI (OVCAR-8 ovarian) | TGI (PC-3 prostate) | TGI (RPMI-8226 leukemia) | TGI (RXF 393 renal) | TGI (SF-295 CNS) | TGI (SF-539 CNS) | TGI (SK-MEL-2 melanoma) | TGI (SK-MEL-5 melanoma) | TGI (SK-OV-3 ovarian) | TGI (SN12C renal) | TGI (SR leukemia) | TGI (SW-620 colon) | TGI (TK-10 renal) | TGI (U251 CNS) | TGI (UACC-257 melanoma) | TGI (UACC-62 melanoma) | TGI (UO-31 renal)
96900 nM: TGI (NCI-H226 lung)

CC(C)CCC[C@@H](C)[C@H]1CC[C@H]2[C@@H]3CC=C4C[C@@H](C(C(=O)O)C(=O)O)CC[C@]4(C)[C@H]3CC[C@]12C
188 nM: TGI (MDA-MB-435)
1060 nM: TGI (HT29 colon)
1480 nM: TGI (HL-60(TB) leukemia)
2190 nM: TGI (PC-3 prostate)
2050 nM: TGI (MOLT-4 leukemia)
502 nM: TGI (MALME-3M melanoma)
153 nM: TGI (SF-295 CNS)
612 nM: TGI (HCT-15 colon)
1120 nM: TGI (IGROV1 ovarian)
4350 nM: TGI (OVCAR-4 ovarian)
2510 nM: TGI (786-0 renal)
1470 nM: TGI (SNB-75 CNS)
457 nM: TGI (SN12C renal)
497 nM: TGI (NCI-H460 lung)
630 nM: TGI (NCI-H23 lung)
467 nM: TGI (UO-31 renal)
1760 nM: TGI (M14 melanoma)
8910 nM: TGI (SNB-19 CNS)
2580 nM: TGI (HS 578T breast)
5560 nM: TGI (OVCAR-5 ovarian)
904 nM: TGI (HOP-92 NSCLC)
1630 nM: TGI (SR leukemia)
6000 nM: TGI (NCI/ADR-RES ovarian)
3150 nM: TGI (SK-OV-3 ovarian)
1250 nM: TGI (SW-620 colon)
274 nM: TGI (DU-145 prostate)
active: GI50 (786-0 renal) 288 nM | GI50 (A498 renal) 86.2 nM | GI50 (A549 NSCLC) 145 nM | GI50 (ACHN renal) 150 nM | GI50 (BT-549 breast) 197 nM | GI50 (CAKI-1 renal) 76 nM | GI50 (CCRF-CEM leukemia) 112 nM | GI50 (COLO 205 colon) 111 nM | GI50 (DU-145 prostate) 115 nM | GI50 (EKVX NSCLC) 78.6 nM | GI50 (HCC-2998 colon) 185 nM | GI50 (HCT-116 colon) 101 nM | GI50 (HCT-15 colon) 148 nM | GI50 (HL-60(TB) leukemia) 252 nM | GI50 (HOP-62 NSCLC) 176 nM | GI50 (HOP-92 NSCLC) 307 nM | GI50 (HS 578T breast) 242 nM | GI50 (HT29 colon) 224 nM | GI50 (IGROV1 ovarian) 166 nM | GI50 (K-562 leukemia) 144 nM | GI50 (KM12 colon) 117 nM | GI50 (LOX IMVI melanoma) 139 nM | GI50 (M14 melanoma) 186 nM | GI50 (MALME-3M melanoma) 134 nM | GI50 (MCF7 breast) 386 nM | GI50 (MDA-MB-231 breast) 214 nM | GI50 (MDA-MB-435) 72.1 nM | GI50 (MOLT-4 leukemia) 248 nM | GI50 (NCI-H226 lung) 209 nM | GI50 (NCI-H23 lung) 147 nM | GI50 (NCI-H460 lung) 160 nM | GI50 (NCI-H522 lung) 153 nM | GI50 (NCI/ADR-RES ovarian) 220 nM | GI50 (OVCAR-3 ovarian) 121 nM | GI50 (OVCAR-4 ovarian) 207 nM | GI50 (OVCAR-5 ovarian) 198 nM | GI50 (OVCAR-8 ovarian) 158 nM | GI50 (PC-3 prostate) 177 nM | GI50 (RPMI-8226 leukemia) 353 nM | GI50 (RXF 393 renal) 192 nM | GI50 (SF-268 CNS) 157 nM | GI50 (SF-295 CNS) 64.3 nM | GI50 (SF-539 CNS) 107 nM | GI50 (SK-MEL-2 melanoma) 224 nM | GI50 (SK-MEL-28 melanoma) 143 nM | GI50 (SK-MEL-5 melanoma) 113 nM | GI50 (SK-OV-3 ovarian) 298 nM | GI50 (SN12C renal) 137 nM | GI50 (SNB-19 CNS) 237 nM | GI50 (SNB-75 CNS) 166 nM | GI50 (SR leukemia) 135 nM | GI50 (SW-620 colon) 156 nM | GI50 (T-47D breast) 188 nM | GI50 (TK-10 renal) 165 nM | GI50 (U251 CNS) 129 nM | GI50 (UACC-257 melanoma) 133 nM | GI50 (UACC-62 melanoma) 76.4 nM | GI50 (UO-31 renal) 137 nM
407 nM: TGI (SF-539 CNS)
469 nM: TGI (SK-MEL-28 melanoma)
622 nM: TGI (NCI-H226 lung)
838 nM: TGI (MDA-MB-231 breast)
187 nM: TGI (UACC-62 melanoma)
632 nM: TGI (TK-10 renal)
798 nM: TGI (HCT-116 colon)
527 nM: TGI (NCI-H522 lung)
199 nM: TGI (CAKI-1 renal)
938 nM: TGI (RPMI-8226 leukemia)
613 nM: TGI (SK-MEL-2 melanoma)
1280 nM: TGI (HCC-2998 colon)
298 nM: TGI (OVCAR-3 ovarian)
547 nM: TGI (A549 NSCLC)
266 nM: TGI (SK-MEL-5 melanoma)
2210 nM: TGI (BT-549 breast)
247 nM: TGI (COLO 205 colon)
245 nM: TGI (EKVX NSCLC)
747 nM: TGI (HOP-62 NSCLC)
468 nM: TGI (LOX IMVI melanoma)
2000 nM: TGI (K-562 leukemia)
292 nM: TGI (KM12 colon)
807 nM: TGI (OVCAR-8 ovarian)
1650 nM: TGI (SF-268 CNS)
639 nM: TGI (UACC-257 melanoma)
2800 nM: TGI (T-47D breast)
408 nM: TGI (U251 CNS)
5370 nM: TGI (MCF7 breast)
913 nM: TGI (CCRF-CEM leukemia)
216 nM: TGI (A498 renal)
662 nM: TGI (ACHN renal) | TGI (RXF 393 renal)
